The results in this text go back to ChEMBL document CHEMBL1121918, “Synthesis and pharmacological evaluation of poly(oxyethylene) derivatives of 4-isobutylphenyl-2-propionic acid (ibuprofen)” (J Med Chem, 1981).

As usually defined, the LD50 is the dose at which mortality reaches 50%. A lower LD50 goes with greater toxicity.

A short description of this series: Lethal dose in mice when administered orally. The conditions noted are these: mouse, in vivo, po. Format: toxicity, organism-based.
`CC(C)Cc1ccc(C(C)C(=O)OCCOCCOCCOCCOCCOCCOCCOCCOCCOCCOCCOCCOCCOCCOCCOCCOCCOCCOCCOCCOCCOCCOCCOCCOCCOCCOCCOCCOCCOCCOCCOCCOCCOCCOCCOCCOCCOCCOCCOCCOCCOCCOCCOCCOCCOC(=O)C(C)c2ccc(CC(C)C)cc2)cc1` (stereo not drawn) displayed an LD50 greater than 2000 mg/kg. `CC(C)Cc1ccc(C(C)C(=O)OCCOCCOCCOCCOCCOCCOCCOCCOCCOCCOCCOCCOCCOCCOCCOCCOCCOCCOCCOCCOC(=O)C(C)c2ccc(CC(C)C)cc2)cc1` (stereo not drawn) registered an LD50 greater than 2000 mg/kg. For `CC(C)Cc1ccc(C(C)C(=O)OCCOCCOCCOCCO)cc1` (stereo not drawn), the LD50 was greater than 2000 mg/kg.
